Assay results: the METLIN SMRT retention time set (Domingo-Almenara et al. 2019)

Test: gradient 5% acetonitrile 3 min, to 50% in 2 min, to 85% in 15 min, held 3 min, 100 µL/min
Conditions: column: Zorbax Extend-C18 2.1 x 50 mm; eluents: water / acetonitrile, 0.1% formic acid
Procedure, shortened: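 Using water and acetonitrile that each contained 0.1% formic acid, mixtures of ~100 pure standards were separated at 100 μL/min on a Zorbax Extend-C18 column (2.1 × 50 mm, 1.8 μm). The HPLC fed a quadrupole time-of-flight mass spectrometer working in positive and negative ionization mode, with dead and dwell volumes of 40 μL and 900 μL. Data were acquired over 3 months. Retention time was read from computationally picked adduct peaks after manual inspection of each.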

| Compound | RP-LC retention time |
| --- | --- |
| Cc1nc(N2CCOCC2)cc(N2CCN(C(=O)c3ccc(Br)o3)CC2)n1 | 619 s |
| CCCCCOC(=O)Nc1nc(=O)n([C@@H]2O[C@H](C)[C@H](O)C2O)cc1F (some centres undefined) | 682 s |
| Cc1ccc(CNC(=O)C2CCCN(c3nc4ccccc4n(Cc4ccccc4)c3=O)C2)o1 (centres undefined) | 1150 s |
| CCn1cc(S(=O)(=O)NCc2ccccc2)c2cccnc21 | 804 s |
| O=C(Nc1ccc2c(c1)CCN2S(=O)(=O)c1ccccc1)Nc1ccccc1Cl | 1030 s |
| CCn1cc(CN2CCC(C(=O)NC(C)c3ccccc3)CC2)c2cc(OC)ccc21 (centres undefined) | 707 s |
| Cc1ccc(CN2CCC[C@H]2c2nc(C3CCOCC3)n[nH]2)c(C)c1 | 590 s |
| CSc1ccc(NC(=O)C2CCN(c3cncnc3N3CCOCC3)CC2)cc1 | 669 s |
| Cc1ccc(C)c(-c2coc(-c3ccc(NC(=O)NCc4cccc(F)c4)cc3)n2)c1 | 1190 s |
| O=C1c2cc(O)cc(O)c2OC[C@@H]1c1ccc(O)c(O)c1 | 834 s |
| COc1ccc(Nc2c(-c3ccc(SC)cc3)nc3ncccn23)cc1OC | 702 s |
| O=C(Nc1cccc(Br)c1)c1cc(-c2ccccn2)n[nH]1 | 843 s |
| Cn1c(=O)c(N2CCN(S(=O)(=O)c3cccc(Cl)c3)CC2)nc2ccncc21 | 677 s |
| O=C(CCCS(=O)(=O)c1ccc(F)cc1)Nc1ncnc2sccc12 | 649 s |
| Cc1c(Cl)cccc1S(=O)(=O)N1CCN(c2nc3ccncc3n(C)c2=O)CC1 | 732 s |
| CCOC(=O)c1[nH]c(C)c(CCC(=O)N2CCC(C(=O)NC(C)C)CC2)c1C | 683 s |
| CC(C)N1C(=O)c2cccnc2Sc2cc(NC(=O)Cc3cccc(F)c3)ccc21 | 876 s |
| CCN1C(=O)c2cc(S(=O)(=O)Nc3cc(C)cc(C)c3)ccc2Oc2cccnc21 | 1080 s |
| COCCN(CCOC)C(=O)C12CCC(C)(C(=O)C1)C2(C)C (centres undefined) | 706 s |
| CCCc1ccc(S(=O)(=O)N2CCC3(CCC(CN4CCN(C)CC4)O3)CC2)cc1 (centres undefined) | 654 s |
| Cc1ccc(Nc2nccc(N(C)c3ccc4c(C)n(C)nc4c3)n2)cc1S(N)(=O)=O | 685 s |
| CCN(CC)CCNCc1ccc(-c2ccc(OC)c(Cl)c2)o1 | 566 s |
| Cc1nn2c(CNS(=O)(=O)c3cccc(Cl)c3)c(-c3ccccc3)nc2s1 | 916 s |
| Cn1cc(CN2CCC(C(=O)N3CCN(c4ccccn4)CC3)CC2)c2cc(Cl)ccc21 | 584 s |
| CCN1CCn2cc(S(=O)(=O)Nc3cc(Cl)ccc3OC)cc2C1=O | 764 s |
| CCOc1ccc(C2=NC3(CCN(CC)CC3)NC(c3ccccc3O)C2)cc1 (centres undefined) | 583 s |

| Compound | RP-LC retention time |
| --- | --- |
| CCOc1coc(C(=O)NCc2ccccc2OC)cc1=O | 644 s |
| Cc1ccccc1Oc1nccn2c(=O)n(CC(=O)Nc3ccccc3Cl)nc12 | 863 s |
| O=C1CCN(C(=O)c2cccs2)CCOCCN1 | 585 s |
| Cc1cc(C(=O)O)c2cc(F)ccc2n1 | 486 s |
| O=S(=O)(c1ccc2c(c1)-c1oncc1CO2)N1CCN(c2ccccc2)CC1 | 1030 s |
| O=S(=O)(c1ccc(-c2nnc(C3CCC3)o2)o1)N1CCCC1 | 846 s |
| O=C(Cn1cccc1-c1nnc(-c2ccccc2)o1)NCc1cccnc1 | 617 s |
| CCOc1ccccc1N1CCN(Cc2nc3nc(C)cc(N4CCCC4)n3n2)CC1 | 627 s |
| CCCNC(=O)C1CCCN(c2nc3ncn(CC(=O)Nc4cc(C)cc(C)c4)c(=O)c3s2)C1 (centres undefined) | 759 s |
| CCCNC(=O)CCc1nc2ccccc2n(CC(=O)NC(C)CC)c1=O (centres undefined) | 688 s |
| COc1ccc(S(=O)(=O)NCCc2cn(CC(C)C)c3ncccc23)cc1Cl | 962 s |
| O=C(NCCn1nc(-n2cccn2)ccc1=O)C1(c2ccccc2)CCOCC1 | 635 s |
| CC(C)(C)c1csc(-c2csc(S(=O)(=O)NCc3ccc(F)cc3F)c2)n1 | 1220 s |
| CCCNC(=O)N(C1CCOCC1)C1CCN(C(=O)c2ccc(C)s2)CC1 | 747 s |
| CCNC(=O)c1n[nH]c2c1CC(C)CC2 (centres undefined) | 685 s |
| COC(=O)CNC(=O)N1CCCCC1c1nc(CCOCC2CC2)no1 (centres undefined) | 711 s |
| COc1ccc(-c2noc(Cc3nnc(-c4ccc(Cl)cc4)o3)n2)cc1 | 1060 s |
| O=C1CCC(C(=O)N2CCC(c3c[nH]c4ccccc34)(c3c[nH]c4ccccc34)CC2)N1 (centres undefined) | 711 s |
| Cc1nc(N2CCN(c3ccccn3)CC2)nc2c1C(=O)CC(c1ccccc1F)C2 (centres undefined) | 735 s |
| CCNc1cc(N2CCCC(CCC(=O)NC(C)c3cn(C)nc3C)C2)ncn1 (centres undefined) | 592 s |
| O=C1c2ccccc2C(=O)c2sc(Nc3ccc(Cl)cc3)nc21 | 1030 s |
| O=C(Nc1ccnn1Cc1cccs1)c1ccccc1Br | 794 s |
| Cc1cc(C)cc(Oc2nccn3c(=O)n(CC(=O)Nc4ccc(F)cc4)nc23)c1 | 905 s |
| CCC(C)NC(=O)N1CCC(N2CCN(Cc3cccc(C)c3)C2=O)CC1 (centres undefined) | 784 s |
| COc1ccc(S(=O)(=O)Nc2cc(-c3cn4ccc(C)cc4n3)ccc2C)cc1OC | 652 s |
| Cc1cnc(C(=O)NC2C[C@H]3CC[C@@H](C2)N3C(=O)CCC2CCCC2)cn1 (some centres undefined) | 762 s |

Next, values leading:

| RP-LC retention time | Compound |
| --- | --- |
| 955 s | Cc1ccc(CNC(=O)C2CCN(S(C)(=O)=O)c3cc(Cl)ccc3O2)cc1 (centres undefined) |
| 680 s | COc1ccc(C(=O)Nc2ccc3nc(N4CC(C)CC(C)C4)cc(C(=O)O)c3c2)cc1 (centres undefined) |
| 660 s | Cn1c(NC(=O)c2ccc(Cl)cc2)cc(=O)n(C)c1=O |
| 712 s | CC(C)NC(=O)C1=CCN(C(=O)c2cccc(F)c2)CC1 |
| 767 s | O=C(Cc1ccc(Br)cc1)NC1CCN(c2cc(-c3cccs3)[nH]n2)C1 (centres undefined) |
| 980 s | Cc1ccc(-c2cc3c4nn(CC(=O)NC5CCCCC5)c(=O)n4ccn3n2)cc1C |
| 932 s | O=C(Cn1c(=O)cc(-c2nc(C3CC3)no2)c2ccccc21)NC1CCCCC1 |
| 809 s | CCCNC(=O)N1CCCN(C2=NS(=O)(=O)C(c3ccc(C)c(C)c3)=C2C)CC1 |
| 691 s | Cc1ccc(C)c(CNC(=O)C2CCc3nc(N4CCCC4)ncc3C2)c1 (centres undefined) |
| 858 s | Cc1ccc(N2CCC(NC(=O)c3cc(F)cc(F)c3)C2=O)cc1 (centres undefined) |
| 620 s | O=C(CN1CCc2nc(NC(=O)C3CC3)sc2C1)Nc1ccccc1C(F)(F)F |
| 1190 s | COc1cc(C(C)=O)ccc1OC(=O)c1cc2c(C)nn(-c3ccccc3)c2s1 |
| 952 s | CCOc1ccc(NC(=O)N2CCc3cn(CC)c4cccc(c34)C2)cc1 |
| 882 s | CN(C)C(=O)c1ccc(-n2nc(C(F)(F)F)c3c2CCCC3)cc1 |
| 796 s | O=C1CCCc2cc(S(=O)(=O)N3CCC(C(=O)NCCC4=CCCCC4)CC3)ccc2N1 |
| 932 s | COc1ccc(CCC(=O)N2CCCC(C)(C(=O)NCc3ccc(C)cc3)C2)cc1 (centres undefined) |
| 1010 s | O=C(Nc1ccc(N2CCN(c3ccccc3)C2=O)nc1)c1ccc(Cl)cc1 |
| 652 s | Cc1nc2cc3c(cc2n1CC(=O)NCc1ccc(Cl)cc1)OCCO3 |
| 1160 s | Cc1ccc(-n2ccnc(NC(=O)Nc3ccc(F)c(Cl)c3)c2=O)cc1C |

| RP-LC retention time | Compound |
| --- | --- |
| 647 s | CN(C)CCCNC(=O)C1CCN(c2nc3ccc(-c4cccs4)nc3s2)CC1 |
| 796 s | O=C(Nc1cnc(N2CCCC2)nc1)c1ccc(Br)cc1 |
| 970 s | Cc1ccc2ncn(C3CCN(S(=O)(=O)c4ccc(Cl)cc4)CC3)c(=O)c2c1 |
| 975 s | Cc1ccc(CNC(=O)C2CCCN(c3ccc(=O)n(-c4ccc(C)c(Cl)c4)n3)C2)cc1 (centres undefined) |
| 703 s | COc1ccc(Cc2nnc(C3CCN(C(=O)c4ccco4)CC3)s2)cc1 |
| 1270 s | Cc1ccc(-c2noc(Cn3cnc4c(cnn4-c4ccc(C)c(Cl)c4)c3=O)n2)cc1 |
| 693 s | O=C(NCCN1CCC(Cc2ccccc2)CC1)c1ccc2c(c1)NC(=O)C1CCCCN21 (centres undefined) |
| 734 s | O=C(Nc1ccc(F)cc1F)C1CCc2nc(N3CCOCC3)ncc2C1 (centres undefined) |
| 820 s | Cc1ccc(NC(=O)N2CCCN(c3ccc(=O)n(-c4ccccc4)n3)CC2)cc1 |
| 999 s | Cc1c(C(=O)NC2CCCC2)cnn1-c1ccc(-c2nc(C3CC3)no2)cn1 |
| 667 s | CCN1CCC(N(Cc2cccs2)C(=O)Nc2ccc(C)cc2)CC1 |
| 1150 s | Cc1ccc(Sc2nccnc2N2CCCC(C(=O)Nc3cc(C)cc(C)c3)C2)cc1 (centres undefined) |
| 1100 s | CCOc1ccccc1NC(=O)N1CCCC1c1nc(-c2ccc(OC)cc2)no1 (centres undefined) |
| 908 s | CCn1cc2c3c(cccc31)CN(C(=O)Nc1ccc3c(c1)OCCO3)CC2 |
| 1220 s | Cc1ccc(C)c(NC(=O)C2CCCN(c3nc4c(s3)c(C)nn4-c3ccccc3)C2)c1 (centres undefined) |
| 1040 s | Cc1ccc(-c2cc(C(=O)N(C)Cc3ccccc3)c(C)[nH]2)cc1C |
| 754 s | CCN(Cc1ccccc1)C(=O)c1c(C)sc2ccn(CC)c(=O)c12 |
| 1320 s | Cc1ccc(C)c(NS(=O)(=O)c2cc(-c3cc(C(F)(F)F)on3)sc2C)c1 |
